The values below come from the supplement of paper PMC10307832.

Test in all cases: relative viability (nuclei count vs DMSO), 5 days (fraction); higher = more cells survive
Compound in assay [1]: C1CNCCC1C2=CC(=NN2)C3=CC=NC=C3 + CC(=O)c1c(C)c2cnc(Nc3ccc(N4CCNCC4)cn3)nc2n(C2CCCC2)c1=O [Palbociclib] (partner 0.5 µM)
In a few lines: (§1)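 Values are medians from duplicate plates. Each reflects relative viability, defined as the nuclei count of treated wells over that of vehicle wells. Lung cancer cell lines in 1536-well plates were pin-tool dosed one day after seeding with one drug alone or with a fixed anchor-drug dose plus five library-drug doses (not always all listed) in √10 steps, then fixed, stained and imaged at 4× after 5 days.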

Compound in assay [2]: C1CNCCC1C2=CC(=NN2)C3=CC=NC=C3 + CC(C)C[C@H](NC(=O)[C@H](Cc1ccccc1)NC(=O)c1cnccn1)B(O)O [Bortezomib] (partner 0.002 µM)
Summed up: as §1

Compound in assay [3]: C1CNCCC1C2=CC(=NN2)C3=CC=NC=C3 + Nc1ncn([C@H]2C[C@H](O)[C@@H](CO)O2)c(=O)n1 [Decitabine] (partner 2 µM)
Summed up: as §1

Compound in assay [4]: C[C@@H](N)c1ccc(C(=O)Nc2ccnc3[nH]ccc23)cc1 + COc1cccc2cc(-c3nc([C@H]4CC[C@H](C(=O)O)CC4)n4ncnc(N)c34)[nH]c12 [OSI-027] (partner 0.5 µM)
In a few lines:
as §1

UMC-11: the relative viability in assay [1] (first compound 0.08 µM) was found to be 0.317; in assay [1] (first compound 0.8 µM) it was 0.343; in assay [1] (first compound 2.53 µM), 0.325; in assay [1] (first compound 8 µM), 0.333; in assay [2] (first compound 0.08 µM) it was 0.643; in assay [2] (first compound 0.8 µM), 0.919. In addition, the relative viability in assay [2] (first compound 2.53 µM) turned out to be 0.786; in assay [2] (first compound 8 µM), 0.688; in assay [3] (first compound 0.08 µM), 0.4; in assay [3] (first compound 0.8 µM) it was 0.629; in assay [3] (first compound 2.53 µM), 0.697; in assay [3] (first compound 8 µM), 0.808. In addition, the relative viability came to 0.583 in assay [4] (first compound 0.04 µM); 0.565 in assay [4] (first compound 0.1265 µM); 0.555 in assay [4] (first compound 0.4 µM); 0.453 in assay [4] (first compound 1.265 µM); 0.459 in assay [4] (first compound 4 µM).
